Source: patent US7709516B2, “Helix 12 directed non-steroidal antiandrogens” (Endorecherche, Inc., priority 2005, dated 2010)
Where two headings read alike, the source gives them in different places.

Tests used:
[1] = system: rat prostate, seminal vesicle, levator ani muscle; experiment: Systemic antiandrogenic activity in orchidectomized immature male rats with DHT implant; format: in vivo; settings: Rattus norvegicus, po, 168 h, rat +DHT, p.o, 0.5 mg/animal daily 7 days
[2] = system: Shionogi mouse mammary carcinoma cells; experiment: Androgenic/antiandrogenic activity: inhibition of DHT-stimulated Shionogi cell number; format: cell-based; settings: DHT-stimulated Shionogi cell number
[3] = molecular target: T1, Human Androgen Receptor (Homo sapiens, UniProt P10275); experiment: Androgen receptor binding assay ([3H]R1881, HAP) in cytosol of HEK-293 cells transfected with hAR; settings: relative to R1881 = 100, transfected cells
T1 sequence (P10275 1-920): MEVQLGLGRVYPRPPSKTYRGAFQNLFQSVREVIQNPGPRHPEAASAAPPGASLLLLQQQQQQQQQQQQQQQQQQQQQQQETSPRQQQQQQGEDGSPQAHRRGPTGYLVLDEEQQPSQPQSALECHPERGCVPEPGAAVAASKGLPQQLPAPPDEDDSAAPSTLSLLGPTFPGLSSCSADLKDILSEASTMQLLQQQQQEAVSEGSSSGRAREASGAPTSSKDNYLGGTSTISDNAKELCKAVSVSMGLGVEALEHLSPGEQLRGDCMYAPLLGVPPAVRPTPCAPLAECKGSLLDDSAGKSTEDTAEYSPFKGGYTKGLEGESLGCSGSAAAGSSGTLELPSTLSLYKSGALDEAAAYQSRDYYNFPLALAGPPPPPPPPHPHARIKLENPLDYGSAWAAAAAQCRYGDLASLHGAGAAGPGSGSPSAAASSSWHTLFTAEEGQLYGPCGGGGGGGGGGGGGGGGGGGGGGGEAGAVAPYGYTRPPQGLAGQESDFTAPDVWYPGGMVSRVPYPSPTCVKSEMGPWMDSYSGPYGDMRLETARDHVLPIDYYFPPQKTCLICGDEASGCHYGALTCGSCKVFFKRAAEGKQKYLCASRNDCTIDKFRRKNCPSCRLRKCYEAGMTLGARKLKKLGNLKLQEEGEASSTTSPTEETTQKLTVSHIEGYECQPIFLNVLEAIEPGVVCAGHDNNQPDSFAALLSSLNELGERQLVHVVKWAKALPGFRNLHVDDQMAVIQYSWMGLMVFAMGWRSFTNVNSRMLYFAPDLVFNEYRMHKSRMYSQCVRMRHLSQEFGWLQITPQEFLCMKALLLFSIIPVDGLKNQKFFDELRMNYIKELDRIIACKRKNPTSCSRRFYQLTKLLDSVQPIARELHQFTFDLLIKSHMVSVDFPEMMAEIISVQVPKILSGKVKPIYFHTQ

[4] = system: rat prostate, seminal vesicle, levator ani muscle; experiment: Systemic androgenic activity in orchidectomized immature male rats; format: in vivo; settings: for change in vivo at 0.2 mg: po, 168 h, 0.2 mg/animal daily 7 days
Excerpt: Column 7 represents the % of androgenic efficacy in rat prostate, expressed in percentage of stimulation:
W is the weight of the prostate.
Column 8 represents the % of androgenic efficacy in rat seminal vesicle, expressed in percentage of stimulation:
W is the weight of the seminal vesicle.
Column 9 represents the % of androgenic efficacy in rat levator ani muscle, expressed in percentage of stimulation: […]
Immature male rats (Crl:CD(SD)Br) 22 to 24-day old were obtained from Charles-River, Inc. (St-Constant, Quebec, Canada) and housed up to 5 per cage in plastic bins in a temperature (23±1° C.)— and light (12 h light/day, lights on at 7h15)— controlled environment. The rats were fed rodent chow and tap water ad libitum. The day following their arrival, the animals were orchidectomized (CX) under Isoflurane anesthesia via scrotal route and randomly assigned to groups of 5 animals.
To evaluate the antiandrogenic activity, tested compounds were administered subcutaneously or orally once daily at a dose of 0.5 mg/animal for antiandrogenitic activity or 0.2 mg/animal for androgenic activity for 7 days (SD 1 to 7). Compounds were solubilized (when possible) in dimethylsulfoxide (DMSO, 10% final concentration) and administered as suspension in 0.4% methylcellulose. […] One group of animals received the antiandrogen Flutamide as reference. The animals were killed by cervical dislocation under isoflurane anesthesia on the 8th morning following castration. The ventral prostate and seminal vesicles were rapidly dissected and weighed.
3. Calculations and Statistical Analysis
W is the weight of the prostate, the seminal vesicle or levator ani.

[5] = Prostate cell, read-out: Lev Ani % inhibition, Table 1, levator ani
[6] = Prostate cell, read-out: SV % inhibition, Table 1, seminal vesicle
[7] = read-out: Prostate % inhibition, Table 1
[8] = Mus musculus, read-out: Shionogi Antiandrogenic Activity IC50, Table 1
[9] = Table 3, agonist reported when compound stimulates the cells
[10] = Table 3, p.o (marked in prostate cell), read-out: % Stimulation Lev.Ani
[11] = Table 3, p.o (marked in prostate cell), read-out: % Stimulation SV
[12] = Table 3, p.o, read-out: % Stimulation Prostate
[13] = Table 3, s.c. or p.o (route not marked)

Work on CC1(C)C(=O)N(c2ccc(C#N)c(C(F)(F)F)c2)C(=S)N1CCCOc1ccc(SC(F)(F)F)cc1 [EM-8342] yielded an inhibition in vivo at 0.5 mg [1, 5] of 53%, an inhibition in vivo at 0.5 mg [1, 6] of 79% and an inhibition in vivo at 0.5 mg [1, 7] of 43%. The IC50 [2, 8] was 0.0667 µM and the “Human Androgen Receptor Binding (%) RBA R1881 = 100” value ([3]; Table 1) was 0.5%.
Work on CC1(C)C(=O)N(c2ccc(C#N)c(C(F)(F)F)c2)C(=S)N1CCCOc1ccc(CN2CCSCC2)cc1 [EM-8344] yielded an inhibition in vivo at 0.5 mg [1, 5] of 51%, an inhibition in vivo at 0.5 mg [1, 6] of 77% and an inhibition in vivo at 0.5 mg [1, 7] of 50%. For the same molecule, the IC50 [2, 8] was 0.0126 µM and the “Human Androgen Receptor Binding (%) RBA R1881 = 100” value ([3]; Table 1) was 161.6%.
With CCC(c1ccc(OCCCN2C(=S)N(c3ccc(C#N)c(Cl)c3C)C(=O)C2(C)C)cc1)N(C)C (stereo not shown) [EM-8345] the “Shionogi Antiandrogenic Activity IC50” value [2, 9] was “Partial agonist”, the change in vivo at 0.2 mg [4, 10] was 77% and the change in vivo at 0.2 mg [4, 11] was 18%. For the same molecule, the change in vivo at 0.2 mg [4, 12] was 42% and the “Human Androgen Receptor Binding (%) RBA R1881 = 100” value ([3]; Table 3) was 68%.
In the case of Cc1c(N2C(=O)C(C)(C)N(CCCOc3ccc(-n4ccnc4)cc3)C2=S)ccc(C#N)c1Cl [EM-8346], the “Shionogi Antiandrogenic Activity IC50” value [2, 9] is reported as “Partial agonist”, the change in vivo at 0.2 mg [4, 10] is reported as 128% and the change in vivo at 0.2 mg [4, 11] is reported as 40%. For the same molecule, the change in vivo at 0.2 mg [4, 12] was 47% and the “Human Androgen Receptor Binding (%) RBA R1881 = 100” value ([3]; Table 3) was 125%.
CC1(C)C(=O)N(c2ccc(C#N)c(Cl)c2)C(=S)N1CCCOc1ccc(S(C)(=O)=O)cc1 [EM-8360] gave an inhibition in vivo at 0.5 mg [1, 5] of 82%, an inhibition in vivo at 0.5 mg [1, 6] of 88% and an inhibition in vivo at 0.5 mg [1, 7] of 56%. The IC50 [2, 8] was 0.0071 µM and the “Human Androgen Receptor Binding (%) RBA R1881 = 100” value ([3]; Table 1) was 18.1%.
CC(=O)Nc1ccc(OCCCN2C(=S)N(c3ccc(C#N)c(Cl)c3C)C(=O)C2(C)C)cc1 [EM-8362] was tested, and the “Shionogi Antiandrogenic Activity IC50” value [2, 9] was “Partial agonist”, the change in vivo at 0.2 mg [4, 10] was 105% and the change in vivo at 0.2 mg [4, 11] was 43%. The change in vivo at 0.2 mg [4, 12] was 33% and the “Human Androgen Receptor Binding (%) RBA R1881 = 100” value ([3]; Table 3) was 66%.
With Cc1c(N2C(=O)C(C)(C)N(CCCOc3ccc(S(=O)(=O)C(C)C)cc3)C2=S)ccc(C#N)c1Cl [EM-8363] the “Shionogi Antiandrogenic Activity IC50” value [2, 9] was “Partial agonist”, the change in vivo at 0.2 mg [4, 10] was 85% and the change in vivo at 0.2 mg [4, 11] was 24%. The change in vivo at 0.2 mg [4, 12] was 29% and the “Human Androgen Receptor Binding (%) RBA R1881 = 100” value ([3]; Table 3) was 52%.
With Cc1cc2c(C)c(C)c(=O)oc2cc1OCCCN1C(=S)N(c2ccc(C#N)c(C(F)(F)F)c2)C(=O)C1(C)C [EM-8385] the inhibition in vivo at 0.5 mg [1, 5] was 20%, the inhibition in vivo at 0.5 mg [1, 6] was 41% and the inhibition in vivo at 0.5 mg [1, 7] was 17%. For the same molecule, the “Shionogi Antiandrogenic Activity IC50” value ([2]; Table 1) was “Partial agonist” and the “Human Androgen Receptor Binding (%) RBA R1881 = 100” value ([3]; Table 1) was 50.5%.
Work on CC1(C)C(=O)N(c2ccc(C#N)c(C(F)(F)F)c2)C(=S)N1CCCOc1ccc2c(C(F)(F)F)cc(=O)oc2c1 [EM-8393] yielded an inhibition in vivo at 0.5 mg [1, 5] of 35%, an inhibition in vivo at 0.5 mg [1, 6] of 60% and an inhibition in vivo at 0.5 mg [1, 7] of 3%. The IC50 [2, 8] was 0.0445 µM and the “Human Androgen Receptor Binding (%) RBA R1881 = 100” value ([3]; Table 1) was 7.7%.
With C[C@]12CC[C@H]3[C@@H](CCC4=CC(=O)CC[C@@]43C)[C@@H]1CC[C@@H]2O [Testo, reference compound] the IC50 ([2]; Table 3, agonist reported when compound stimulates the cells, read-out: Shionogi Antiandrogenic Activity IC50) was 0.023 to 0.107 µM, the “% Stimulation Lev.Ani” value [4, 13] was 171% and the “% Stimulation Prostate” value [4, 13] was 99%. The “% Stimulation SV” value [4, 13] was 115%.
